Assay results: patent publication US10149879B2 (priority 2014, dated 2018)

Columns and labels:
Format in all cases: in vivo, rats
Triglycerides = assay: Anti-hyperlipidemic activity on triglycerides; conditions: H.G. animals, standard drug
Experimental: (§1) Before utilizing the test drug for human consumption the pre-clinical safety and efficacy profile of single plant candidate extract as well as in combined form was conducted following standard norms. The biological property of test formulation was validated in streptozotocin (STZ) induced diabetes animal model which also helped in evaluation of vascular complications caused due to diabetes. The effect of test drug was assessed on glucose levels, insulin level, glycosylated hemoglobin, and pro-inflammatory cytokines, and the most important bio-marker neopterin including various neuro-psychological assessments. The mechanism based study clearly indicated the neopterin decreasing potential of test formulation which exerted neuro-protective activity, better glycemic control, anti-atherosclerotic, anti-inflammatory, anti-oxidant effects in STZ induced diabetes among the animals. Further, its therapeutic activity has also been validated in neurogenic dementia and other cognitive deficits associated with diabetes mellitus.

SOD = assay: Attenuation of oxidative stress: SOD; parameters: SOD, Brain / SOD, Heart / SOD, Liver / SOD, Kidney: unit not given here; conditions: H.G. animals; standard drug
Experimental: as §1, with “mellitus. Attenuation of Oxidative Stress Following Treatment with Test Formulation—Restriction of SOD” for “mellitus.”

Glycogen = assay: Restoration of glycogen in liver and skeletal muscle; conditions: H.G. animals; standard drug
Experimental: (§2) Before utilizing the test drug for human consumption the pre-clinical safety and efficacy profile of single plant candidate extract as well as in combined form was conducted following standard norms. […] The effect of test drug was assessed on glucose levels, insulin level, glycosylated hemoglobin, and pro-inflammatory cytokines, and the most important bio-marker neopterin including various neuro-psychological assessments.

HDL-c, VLDL-c, LDL-c = assay: Lipoprotein profile and assessment of atherosclerosis; parameters: HDL-c / VLDL-c / LDL-c: unit not given here; conditions: H.G. animals; standard drug
Experimental: as §2

Cholesterol = assay: Anti-hyperlipidemic activity: cholesterol; conditions: H.G. animals, standard drug
Experimental: as §1

Adiponectin = Adiponectin enhancing property in experimental diabetes; conditions: H.G. animals, standard drug
Experimental: as §1, with “mellitus. Adiponectin Enhancing Property of Berberis aristata in Experimental Diabetes” for “mellitus.”

Insulin = Insulin secretagogues property in diabetic animals; conditions: H.G. animals; standard drug
Experimental: as §1

Free Fatty Acid (FFA) = assay: Reduction in free fatty acids; conditions: H.G. animals; standard drug
Experimental: as §1, with “mellitus. Reduction in Free Fatty Acids Following Test Formulation Treatment Treated with test formulation reported FFA elevation in tissues and plasma of diabetic rats” for “mellitus.”

G-6-P = assay: Regulation of key enzymes in gluconeogenesis: G-6-P; conditions: H.G. animals; standard drug
Experimental: as §1

[1] = system: streptozotocin (STZ) induced diabetes animal model; assay: Anti-hyperglycemic activity, weekly assessment of plasma glucose; conditions: H.G. animals, standard drug
Experimental: as §1
Low dose=100 mg/kg; High dose=200 mg/kg

Effect on body weight = conditions: H.G. animals, standard drug, in g (unit assumed)
Experimental: as §2

Hemoglobin = assay: Glycation of hemoglobin; conditions: H.G. animals; standard drug
Experimental: Before utilizing the test drug for human consumption the pre-clinical safety and efficacy profile of single plant candidate extract as well as in combined form was conducted following standard norms. […] The effect of test drug was assessed on glucose levels, insulin level, glycosylated hemoglobin, and pro-inflammatory cytokines, and the most important bio-marker neopterin including various neuro-psychological assessments. […] Aldose Reductase Activity and Glycation of Hemoglobin Following Test Formulation Treatment

| SMILES | Triglycerides (Triglycerides; 0 days) | Triglycerides (Triglycerides; 7th day) | Triglycerides (Triglycerides; 14th Day) | SOD, Brain (SOD) | SOD, Heart (SOD) | SOD, Kidney (SOD) | SOD, Liver (SOD) | SOD, Pancrease (SOD) | Glycogen content, Liver (Glycogen) | Glycogen content, Skeletal muscle (Glycogen) | HDL-c (HDL-c, VLDL-c, LDL-c) | LDL-c (HDL-c, VLDL-c, LDL-c) | VLDL-c (HDL-c, VLDL-c, LDL-c) | Cholesterol (Cholesterol; 0 days) | Cholesterol (Cholesterol; 7th day) | Cholesterol (Cholesterol; 14th Day) | Adiponectin (Adiponectin; 7th day) | Adiponectin (Adiponectin; 14th Day) | Insulin (Insulin) | Free Fatty Acid (FFA), Heart (Free Fatty Acid (FFA)) | other results |
| --- | --- | --- | --- | --- | --- | --- | --- | --- | --- | --- | --- | --- | --- | --- | --- | --- | --- | --- | --- | --- | --- |
| CN(C)C(=N)N=C(N)N [Metformin] | 134.77 ± 14.06 mg/dL | 123.32 ± 9.51 mg/dL | 102.50 ± 11.75 mg/dL | 19.83 ± 3.56 | 14.33 ± 5.13 | 16.00 ± 2.37 | 15.33 ± 0.86 | 7.01 ± 0.46 | 1095.03 ± 63.10 nM/Mg of Tissue | 86.98 ± 12.80 nM/Mg of Tissue | 27.68 ± 3.51 | 41.38 ± 4.26 | 22.10 ± 3.15 | 110.33 ± 9.55 mg/dL | 100.00 ± 5.63 mg/dL | 88.17 ± 4.79 mg/dL | 6.90 ± 1.87 pg/mL | 6.11 ± 1.39 pg/mL | 109.24 ± 12.13 pg/L | 446.83 ± 39.65 mg/100 g of tissue | Free Fatty Acid (FFA), Liver (Free Fatty Acid (FFA)): 777.83 ± 53.14 mg/100 g of tissue; Free Fatty Acid (FFA), Plasma (Free Fatty Acid (FFA)): 87.67 ± 7.68 mg/L; G-6-P, Kidney (G-6-P): 41.85 ± 7.71 μm/min/mg of protein; G-6-P, Liver (G-6-P): 57.49 ± 8.17 μm/min/mg of protein; Plasma glucose ([1]; 0th Day, in mg/dL): 169.83 ± 10.03; Plasma glucose ([1]; 7th Day, in mg/dL): 148.67 ± 8.85; Plasma glucose ([1]; 14th Day, in mg/dL): 118.83 ± 8.75; Body weight (Effect on body weight; 0th Day): 207.25 ± 6.44; Glycated Hb (Hemoglobin): 0.44 ± 0.04 mg/g of Hb; Hb (Hemoglobin): 10.06 ± 0.06 g/dL |
| CCc1ccc(CCOc2ccc(CC3SC(=O)NC3=O)cc2)nc1 (stereo not shown) [Pioglitazone] | 133.35 ± 09.77 mg/dL | 117.50 ± 9.02 mg/dL | 71.30 ± 6.26 mg/dL | 19.33 ± 3.66 | 15.83 ± 5.83 | 16.67 ± 1.86 | 13.50 ± 1.76 | 6.91 ± 0.22 | 975.00 ± 43.14 nM/Mg of Tissue | 42.02 ± 7.26 nM/Mg of Tissue | 31.44 ± 2.85 | 35.11 ± 7.29 | 17.86 ± 2.05 | 112.33 ± 7.50 mg/dL | 94.23 ± 8.23 mg/dL | 81.41 ± 9.94 mg/dL | 7.13 ± 2.10 pg/mL | 8.02 ± 2.01 pg/mL | 105.31 ± 9.10 pg/L | 379.17 ± 22.06 mg/100 g of tissue | Anti-atherogenic index (HDL-c, VLDL-c, LDL-c): 10.02 ± 5.23; Atherogenic Index (HDL-c, VLDL-c, LDL-c): 2.20 ± 0.35; Free Fatty Acid (FFA), Liver (Free Fatty Acid (FFA)): 522.67 ± 37.75 mg/100 g of tissue; Free Fatty Acid (FFA), Plasma (Free Fatty Acid (FFA)): 69.00 ± 5.60 mg/L; G-6-P, Kidney (G-6-P): 45.08 ± 4.76 μm/min/mg of protein; G-6-P, Liver (G-6-P): 68.56 ± 7.51 μm/min/mg of protein; Plasma glucose ([1]; 0th Day): 170.17 ± 12.55; Plasma glucose ([1]; 7th Day, in mg/dL): 153.83 ± 15.68; Plasma glucose ([1]; 14th Day, in mg/dL): 140.17 ± 6.25; Body weight (Effect on body weight; 0th Day): 200.00 ± 4.65; Body weight (Effect on body weight; 7th Day): 178.80 ± 4.00; Body weight (Effect on body weight; 14th Day): 169.13 ± 2.84; Glycated Hb (Hemoglobin): 0.53 ± 0.07 mg/g of Hb; Hb (Hemoglobin): 10.09 ± 1.85 g/dL |
